Data as given in patent US11980594B2, “Composition and method for treating a drug-resistant cancer” (NOVELWISE PHARMACEUTICAL CORPORATION, priority 2021, dated 2024).
Like-named read-outs stand apart in the source and are kept apart here. Values belong to the molecule of their own block, whether it stands above or below them.

What was measured:
[1] = test system: A172 cells; experiment: Cell proliferation/viability assay (CCK8 kit; text says MTT), A172; type: cell-based; details: Homo sapiens, A 172, single agent, FIG. 2B/2C, read-out: IC50 values (alone)
Text: (§1) Four GBM cell lines U87, U87R, A172, and A172R were used in this study. The American Type Culture Collection (ATCC; Manassas, Va., USA) provided human GBM cell lines U87-MG (ATCC HTB-14; GBM of unknown origin) and A172 (ATCC CRL-1620; ATCC). U87R and A172R cells were obtained from Dr. Tsung-I Hsu and Dr. Jian-Ying Chung (The Ph.D. Program for Neural Regenerative Medicine, College of Medical Science and Technology, Taipei Medical University, Taipei, Taiwan). These cells were maintained in Dulbecco's modified Eagle medium (DMEM) with 10% fetal bovine serum (FBS) and 50 μM TMZ for at least 60 days. TMZ resistance in U87R and A172R cells was confirmed using the colony formation assay (FIG. 11). Cells were cultured in DMEM supplemented with 10% FBS, 100 U/mL penicillin, […] streptomycin (all from Gibco; Thermo Fisher Scientific, Waltham, Mass., USA) and maintained in a humidified incubator at 37° C. and 5% CO2. NBM-BMX (BMX), (E)-2-(4-Methoxybenzyloxy)-3-prenyl-4-methoxy-N-hydroxycinamide, was provided by NatureWise Biotech & Medicals Corporation (Taipei, Taiwan).
(§2) We plated 3000 GBM cells per well in 96-well plates and allowed them to adhere overnight. […] Following treatment, the absorption value was measured using a CCK8 kit (Targetmol, Shanghai, China) at the indicated time points. […]

[2] = test system: A172-R cells; experiment: Cell proliferation/viability assay (CCK8 kit; text says MTT), A172-R; type: cell-based; details: Homo sapiens; A172-R cells (TMZ-resistant); single agent; FIG. 2B/2C; read-out: IC50 values (alone)
Text: as §1, §2

[3] = test system: U87MG cells; experiment: Cell proliferation/viability assay (CCK8 kit; text says MTT), U87MG; type: cell-based; details: Homo sapiens, U-87 MG, single agent, FIG. 2B/2C, read-out: IC50 values (alone)
Text: as §1, §2

[4] = test system: U87MG-R cells; experiment: Cell proliferation/viability assay (CCK8 kit; text says MTT), U87MG-R; type: cell-based; details: Homo sapiens; U87MG-R cells (TMZ-resistant); single agent; FIG. 2B/2C; read-out: IC50 values (alone)
Text: as §1, §2

[5] = test system: HT29 cells; experiment: CRC cell proliferation assay (CCK8), HT29; type: cell-based; details: Homo sapiens
Description: (§3) Three CRC cell lines HT29, HCT116 and RKO were used in this study. The American Type Culture Collection (ATCC; Manassas, Va., USA) provided human CRC cell lines HT29 (ATCC HTB-38; mutant TP53, p.R273H; APC frame shift, p. E1554fs; wild type β-catenin), HCT116 (ATCC CCL-247; wild type TP53; wild type APC; deletion β-catenin, p. S45del) and RKO (ATCC CRL-2577; wild type TP53; wild type APC; wild type β-catenin). Three CRC cells lines as listed above were cultured in adherent culture condition, maintained at 37° C. inside the cell incubation containing 5% CO2. The two cell lines of HCT-116 and HT-29 cells were cultured in McCoy's 5A medium with supplemented 10% fetal bovine serum (Gibco; Thermo Fischer Scientific, Grand Island, N.Y., USA)), 1% penicillin and 1% streptomycin. RKO cell was cultured in MEM medium with supplemented 10% FBS, 1% penicillin, 1% streptomycin and 1% sodium pyruvate. The cell cultures were passaged by trypsinization every three days. BM-BMX (BMX), (E)-2-(4-Methoxybenzyloxy)-3-prenyl-4-methoxy-N-hydroxycinamide, was provided by Nature Wise Biotech & Medicals Corporation (Taipei, Taiwan).
(§4) We plated 4000 CRC cells per well in 96-well plates and allowed them to adhere overnight. To validate cell line responsiveness to BMX and TMZ monotherapy, the cells were treated with different doses of BMX or TMZ for 24, 48, and 72 hrs. To confirm cell responsiveness to the BMX-TMZ combination, cells were either treated with different doses of TMZ ([…]) with or without BMX (5 μM) for 24, 48, and 72 hrs or with different doses of BMX (0-10 μM) with or without TMZ (50 μM) for 24, 48, and 72 hrs. Following treatment, the absorption value was measured using a CCK8 kit (Targetmol, Shanghai, China) at the indicated time points. The results are reported as the mean±standard deviation of at least three replicates.

[6] = test system: HCT116 cells; experiment: CRC cell proliferation assay (CCK8), HCT116; type: cell-based; details: Homo sapiens
Description: as §3, §4

[7] = test system: MGMT; experiment: Western blot of MGMT in GBM-R cells; type: cell-based, human; details: A172-R and U87MG-R cells; 50 μM TMZ without or with 5 and 10 μM BMX; 48 hrs; FIG. 5B, 5C
Description: The cells were collected and lysed in RIPA lysis buffer (EMD Millipore Billerica, Mass., USA, 10×RIPA buffer) containing a protease inhibitor. Protein concentration was determined using a protein assay kit (Bio-Rad Laboratories, Hercules, Calif., USA). The SDS loading buffer was mixed with the protein samples. Proteins (20 μg/lane) were separated using 8%-12% SDS-PAGE and transferred to a PVDF membrane, which was blocked with 5% bovine serum albumin at room temperature for 1 hr in tris-buffered saline (TBS)-Tween 20 (0.5%; TBS-T), incubated with primary antibodies overnight at […], and then incubated with horseradish peroxidase (HRP)-conjugated secondary antibodies at room temperature for 1 hr. After washing thoroughly with TBS-T, the HRP signals were detected with a chemical HRP substrate. Signal of each target protein was visualized by incubation with an enhanced chemiluminescent reagent and exposure to X-ray film.

[8] = statement from literature; cited from earlier work

IC50 [3]: 29.8 ± 2.32 µM | IC50 [4]: > 68.1 µM | IC50 ([5]; HT-29, 24 h, BMX alone, 24 hrs, read-out: IC50 of BMX): 42.6 ± 2.4 µM | IC50 ([5]; HT-29, 24 h, TMZ 50 μM combined with different concentrations of BMX, 24 hrs, read-out: IC50 of BMZ): > 10 µM | IC50 ([5]; HT-29, 48 h, BMX alone, 48 hrs, read-out: IC50 of BMX): 9.9 ± 0.5 µM | IC50 ([5]; HT-29, 48 h, TMZ 50 μM combined with different concentrations of BMX, 48 hrs, read-out: IC50 of BMZ): 9.1 ± 0.2 µM | IC50 ([5]; HT-29, 72 h, BMX alone, 72 hrs, read-out: IC50 of BMX): 2.9 ± 0.2 µM | IC50 ([5]; HT-29, 72 h, TMZ 50 μM combined with different concentrations of BMX, 72 hrs, read-out: IC50 of BMZ): 2.2 ± 0.1 µM | IC50 ([6]; HCT-116, 24 h, BMX alone, 24 hrs, read-out: IC50 of BMX): 24.8 ± 2.5 µM | IC50 ([6]; HCT-116, 24 h, TMZ 50 μM combined with different concentrations of BMX, 24 hrs, read-out: IC50 of BMZ): > 10 µM | IC50 ([6]; HCT-116, 48 h, BMX alone, 48 hrs, read-out: IC50 of BMX): 7.7 ± 0.3 µM | IC50 ([6]; HCT-116, 48 h, TMZ 50 μM combined with different concentrations of BMX, 48 hrs, read-out: IC50 of BMZ): 3.2 ± 0.3 µM | IC50 ([6]; HCT-116, 72 h, BMX alone, 72 hrs, read-out: IC50 of BMX): 1.5 ± 0.3 µM | IC50 ([6]; HCT-116, 72 h, TMZ 50 μM combined with different concentrations of BMX, 72 hrs, read-out: IC50 of BMZ): 0.9 ± 0.1 µM
Compound: COc1ccc(COc2c(/C=C/C(=O)NO)ccc(OC)c2CC=C(C)C)cc1 [BMX, (E)-2-(4-Methoxybenzyloxy)-3-prenyl-4-methoxy-N-hydroxycinamide]
IC50 [1]: 21 ± 2.34 µM | IC50 [2]: > 52.6 µM | MGMT expression [7]: moderately decrease MGMT levels | blood-brain barrier penetration [8]: ability to cross the blood-brain barrier

IC50 [3]: 81 ± 1.68 µM | IC50 [4]: 303 ± 15.2 µM | IC50 ([5]; HT-29, 24 h, BMX 5 μM combined with different doses of TMZ, 24 hrs, read-out: IC50 of TMZ): > 400 µM | IC50 ([5]; HT-29, 24 h, TMZ alone, 24 hrs, read-out: IC50 of TMZ): > 1000 µM | IC50 ([5]; HT-29, 48 h, BMX 5 μM combined with different doses of TMZ, 48 hrs, read-out: IC50 of TMZ): 128 ± 18.3 µM | IC50 ([5]; HT-29, 48 h, TMZ alone, 48 hrs, read-out: IC50 of TMZ): 931 ± 47.7 µM | IC50 ([5]; HT-29, 72 h, TMZ alone, 72 hrs, read-out: IC50 of TMZ): 258 ± 20.5 µM | IC50 ([6]; HCT-116, 24 h, BMX 5 μM combined with different doses of TMZ, 24 hrs, read-out: IC50 of TMZ): > 400 µM | IC50 ([6]; HCT-116, 24 h, TMZ alone, 24 hrs, read-out: IC50 of TMZ): > 1000 µM | IC50 ([6]; HCT-116, 48 h, BMX 5 μM combined with different doses of TMZ, 48 hrs, read-out: IC50 of TMZ): 41.6 ± 2.4 µM | IC50 ([6]; HCT-116, 48 h, TMZ alone, 48 hrs, read-out: IC50 of TMZ): 515 ± 21.6 µM | IC50 ([6]; HCT-116, 72 h, TMZ alone, 72 hrs, read-out: IC50 of TMZ): 192 ± 14.7 µM
Compound: Cn1nnc2c(C(N)=O)ncn2c1=O [TMZ, Temozolomide, reference compound]
IC50 [1]: 73.5 ± 3.65 µM | IC50 [2]: 595 ± 23.4 µM | MGMT expression [7]: moderately suppress MGMT expression | blood-brain barrier penetration [8]: good penetration of the blood-brain barrier
